Measured values as given in paper PMC5682201 (European journal of medicinal chemistry, 2017).

Key:
Type in all cases: cell-based
L. major Amastigotes = assay: Leishmania major amastigote assay; settings: read-out: L. major Amastigotes EC50; Table 4; r^2 values >0.75
HepG2 = HepG2 toxicity; settings: Table 4
NIH 3T3 = NIH 3T3 toxicity; settings: Table 4

6-(3-morpholinophenyl)-N-(1,2,4-triazin-3-yl)quinazolin-4-amine [9d]
EC50 (L. major Amastigotes): > 15 µM
HepG2 TC50 (HepG2): >20 µM
NIH 3T3 TC50 (NIH 3T3): >50 µM
